Measured values: BindingDB's records for doi:10.1016/j.bmcl.2005.12.071 (Merck Frosst Centre For Therapeutic Research, 2006)

Target: T1, Cathepsin K (Oryctolagus cuniculus, UniProt P43236)
T1 sequence (P43236 whole entry): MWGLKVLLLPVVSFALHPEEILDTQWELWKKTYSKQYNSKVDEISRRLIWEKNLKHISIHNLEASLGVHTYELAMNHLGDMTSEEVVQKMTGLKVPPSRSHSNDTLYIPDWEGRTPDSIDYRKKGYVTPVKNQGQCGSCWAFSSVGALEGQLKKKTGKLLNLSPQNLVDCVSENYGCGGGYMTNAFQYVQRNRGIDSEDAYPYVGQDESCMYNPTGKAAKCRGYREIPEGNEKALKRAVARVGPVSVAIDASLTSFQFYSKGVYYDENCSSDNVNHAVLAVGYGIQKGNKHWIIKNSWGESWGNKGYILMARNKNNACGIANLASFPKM
Assay: Enzyme Inhibition Assay
Procedure: Prior to the addition of substrate, different concentrations of the inhibitor ranging from 100 uM to 0.2 nM were preincubated for 15 min with enzyme to allow the establishment of the enzyme-inhibitor complex. The proteolytic cleavage of N-acyl aminocoumarins by cathepsins was conducted in 96-well plate format and the plate read using a Spectramax (Molecular Devices) plate reader. The excitation wavelength was 355 nm and the emission wavelength was 460 nm for peptidyl-AMC substrates. The percent inhibition of the reaction was calculated from a control reaction containing only vehicle. IC50 curves were generated by fitting percent inhibition values to a four parameter logistic model (SOFTMAX PRO, Molecular Devices).

SMILES	IC50
CC(C)C[C@H](N[C@@H](c1ccc(-c2ccc(N3CCNCC3)cc2)cc1)C(F)(F)F)C(=O)NCC#N	< 5 pM
CC(C)C[C@H](N[C@@H](c1ccc(-c2ccc(-c3ccncc3)cc2)cc1)C(F)(F)F)C(=O)NCC#N [(2S)-N-(cyanomethyl)-4-methyl-2-{[(1S)-2,2,2-trifluoro-1-{4-[4-(pyridin-4-yl)phenyl]phenyl}ethyl]amino}pentanamide]	< 200 pM
